From patent US6476017B2, “Compounds activating pharmacological effect of retinoids” (Institute of Medicinal Molecular Design, Inc., priority 1995, dated 2002)

Test system: promyelocytic leukemia cell strain HL-60
Test: Cell differentiation inducing activity of retinoids on HL-60 in presence/absence of test compound (NBT reduction)
Assay type: cell-based
Procedure: The effects of the compounds of the above Examples 1 and 2 on cell differentiation induced by retinoids were studied. As retinoid compounds (i.e., agonists against the all-trans retinoic acid receptor), retinoic acid and Am80 (4-[(5,6,7,8-tetrahydro-5,5,8,8-tetramethyl-2-naphthalenyl)carbamoyl]benzoic acid) were used. Cell differentiation inducing activities of the above retinoids on promyelocytic leukemia cell strain HL-60 were measured in the presence and absence of the compounds of Examples 1 and 2 according to the method described in the Japanese Patent Unexamined Publication (KOKAI) No.(Sho)61-76440/1986. The degrees of the differentiation into granulocytic cell were determined by observing nuclear morphologies and measuring abilities to reduce nitroblue tetrazolium (NBT). This method is well known in the art as a test that enables accurate evaluation of the cell differentiation inducing activity of retinoids. The results are shown in the Table 2 set out below (in the table, NTB positive ratio represents a percent value of differentiated cells based on living cells).
Effect of the compound of Example 10 (HX801) on the cell differentiation inducing activity by a retinoid was examined. Am80 was used as the retinoid compound and the cell differentiation inducing activity of the above retinoid on promyelocytic leukemia cell strain HL-60 was determined in the presence or absence of the compound of HX801 in the same manner as Example 15. The results are shown in the Table 3 set out below (in the table, the symbol “-” indicates no addition).

CC1(C)CCC(C)(C)c2cc(NC(=O)c3ccc(C(=O)O)cc3)ccc21 [Am80, 4-[(5,6,7,8-tetrahydro-5,5,8,8-tetramethyl-2-naphthalenyl)carbamoyl]benzoic acid, reference compound]
NBT positive ratio (Am80 1.0 × 10^−8 M alone, test compound absent (HX600 series)): 55%
NBT positive ratio (Am80 1.0 × 10^−8 M alone, test compound absent (LE135 series)): 55%
NBT positive ratio (Am80 1.1 × 10^−9 M alone, test compound absent (HX600 series)): 44%
NBT positive ratio (Am80 1.1 × 10^−9 M alone, test compound absent (LE135 series)): 35%
NBT positive ratio (Am80 3.3 × 10^−9 M alone, test compound absent (HX600 series)): 53%
NBT positive ratio (Am80 3.3 × 10^−9 M alone, test compound absent (LE135 series)): 51%
NBT positive ratio (Am80 3.7 × 10^−10 M alone, test compound absent (HX600 series)): 15%
NBT positive ratio (Am80 3.7 × 10^−10 M alone, test compound absent (LE135 series)): 21%
NBT positive ratio (Table 3: Am80 1.0 × 10^−9 M alone, no HX801): 48%
NBT positive ratio (Table 3: Am80 1.1 × 10^−10 M alone, no HX801): 5%
NBT positive ratio (Table 3: Am80 1.2 × 10^−11 M alone, no HX801): 0.6%
NBT positive ratio (Table 3: Am80 3.3 × 10^−10 M alone, no HX801): 30%
NBT positive ratio (Table 3: Am80 3.7 × 10^−11 M alone, no HX801): 3%

CC1(C)CCC(C)(C)c2cc3c(cc21)Cc1ccccc1N=C3c1ccc(C(=O)O)cc1 [HX640, 4-[2,3-(2,5-dimethyl-2,5-hexano)-dibenzo[b,e]azepine-11-yl]benzoic acid]
NBT positive ratio (Am80 1.1 × 10^−10 M + test compound 1.0 × 10^−7 M): 69%
NBT positive ratio (Am80 1.1 × 10^−10 M + test compound 1.0 × 10^−8 M): 24%
NBT positive ratio (Am80 1.1 × 10^−10 M + test compound 1.0 × 10^−9 M): 5%
NBT positive ratio (Am80 1.1 × 10^−10 M + test compound 1.0 × 10^−10 M): 7%
NBT positive ratio (Am80 3.3 × 10^−10 M + test compound 1.0 × 10^−6 M): 85%
NBT positive ratio (Am80 3.3 × 10^−10 M + test compound 1.0 × 10^−7 M): 89%
NBT positive ratio (Am80 3.3 × 10^−10 M + test compound 1.0 × 10^−8 M): 75%
NBT positive ratio (Am80 3.3 × 10^−10 M + test compound 1.0 × 10^−9 M): 46%
NBT positive ratio (Am80 3.3 × 10^−10 M + test compound 1.0 × 10^−10 M): 44%

CN1c2cc3c(cc2N=C(c2ccc(C(=O)O)cc2)c2ccccc21)C(C)(C)CCC3(C)C [LE135, 4-(5H-7,8,9,10-tetrahydro-5,7,7,10,10-pentamethylbenzo[e]naphto[2,3-b][1,4]diazepin-13-yl)benzoic acid, reference compound]
NBT positive ratio (Am80 1.0 × 10^−8 M + test compound 1.0 × 10^−6 M (LE135 series)): 34%
NBT positive ratio (Am80 1.0 × 10^−8 M + test compound 1.1 × 10^−7 M): 62%
NBT positive ratio (Am80 1.0 × 10^−8 M + test compound 3.3 × 10^−7 M): 51%
NBT positive ratio (Am80 1.1 × 10^−9 M + test compound 1.0 × 10^−6 M (LE135 series)): 2%
NBT positive ratio (Am80 1.1 × 10^−9 M + test compound 1.1 × 10^−7 M): 23%
NBT positive ratio (Am80 1.1 × 10^−9 M + test compound 3.3 × 10^−7 M): 5%
NBT positive ratio (Am80 3.3 × 10^−9 M + test compound 1.0 × 10^−6 M (LE135 series)): 14%
NBT positive ratio (Am80 3.3 × 10^−9 M + test compound 1.1 × 10^−7 M): 54%
NBT positive ratio (Am80 3.3 × 10^−9 M + test compound 3.3 × 10^−7 M): 32%
NBT positive ratio (Am80 3.7 × 10^−10 M + test compound 1.0 × 10^−6 M (LE135 series)): 1.3%
NBT positive ratio (Am80 3.7 × 10^−10 M + test compound 1.1 × 10^−7 M): 3%
NBT positive ratio (Am80 3.7 × 10^−10 M + test compound 3.3 × 10^−7 M): 1.2%
cell differentiation inducing activity of Am80 (compound coexisting with Am80): significantly suppressed

CN1C(=O)CN=C(c2ccc(C(=O)O)cc2)c2cc3c(cc21)C(C)(C)CCC3(C)C [HX801, 4-[1,3-dihydro-7,8-(2,5-dimethyl-2,5-hexano)-1-methyl-2-oxo-2H-1,4-benzodiazepine-5-yl]benzoic acid]
NBT positive ratio (Table 3: Am80 1.0 × 10^−9 M + HX801 1.0 × 10^−6 M): 77%
NBT positive ratio (Table 3: Am80 1.0 × 10^−9 M + HX801 1.1 × 10^−7 M): 63%
NBT positive ratio (Table 3: Am80 1.0 × 10^−9 M + HX801 3.3 × 10^−7 M): 76%
NBT positive ratio (Table 3: Am80 1.1 × 10^−10 M + HX801 1.0 × 10^−6 M): 48%
NBT positive ratio (Table 3: Am80 1.1 × 10^−10 M + HX801 1.1 × 10^−7 M): 22%
NBT positive ratio (Table 3: Am80 1.1 × 10^−10 M + HX801 3.3 × 10^−7 M): 28%
NBT positive ratio (Table 3: Am80 1.2 × 10^−11 M + HX801 1.0 × 10^−6 M): 2%
NBT positive ratio (Table 3: Am80 1.2 × 10^−11 M + HX801 1.1 × 10^−7 M): 1.4%
NBT positive ratio (Table 3: Am80 1.2 × 10^−11 M + HX801 3.3 × 10^−7 M): 2%
NBT positive ratio (Table 3: Am80 3.3 × 10^−10 M + HX801 1.0 × 10^−6 M): 71%
NBT positive ratio (Table 3: Am80 3.3 × 10^−10 M + HX801 1.1 × 10^−7 M): 49%
NBT positive ratio (Table 3: Am80 3.3 × 10^−10 M + HX801 3.3 × 10^−7 M): 55%
NBT positive ratio (Table 3: Am80 3.7 × 10^−11 M + HX801 1.0 × 10^−6 M): 4.4%
NBT positive ratio (Table 3: Am80 3.7 × 10^−11 M + HX801 1.1 × 10^−7 M): 4%
NBT positive ratio (Table 3: Am80 3.7 × 10^−11 M + HX801 3.3 × 10^−7 M): 2.3%
NBT positive ratio (Table 3: HX801 1.0 × 10^−6 M alone, no Am80): 1.1%
NBT positive ratio (Table 3: HX801 1.1 × 10^−7 M alone, no Am80): 1.1%
NBT positive ratio (Table 3: HX801 3.3 × 10^−7 M alone, no Am80): 0.3%

CN1c2ccccc2N=C(c2ccc(C(=O)O)cc2)c2cc3c(cc21)C(C)(C)CCC3(C)C [HX600, 4-[5H-2,3-(2,5-dimethyl-2,5-hexano)-5-methyldibenzo-[b,e][1,4]diazepine-11-yl]benzoic acid]
NBT positive ratio (Am80 1.0 × 10^−8 M + test compound 1.0 × 10^−6 M (HX600 series)): 95%
NBT positive ratio (Am80 1.0 × 10^−8 M + test compound 1.0 × 10^−7 M): 91%
NBT positive ratio (Am80 1.0 × 10^−8 M + test compound 1.0 × 10^−8 M): 80%
NBT positive ratio (Am80 1.0 × 10^−8 M + test compound 1.0 × 10^−9 M): 69%
NBT positive ratio (Am80 1.1 × 10^−9 M + test compound 1.0 × 10^−6 M (HX600 series)): 93%
NBT positive ratio (Am80 1.1 × 10^−9 M + test compound 1.0 × 10^−7 M): 90%
NBT positive ratio (Am80 1.1 × 10^−9 M + test compound 1.0 × 10^−8 M): 65%
NBT positive ratio (Am80 1.1 × 10^−9 M + test compound 1.0 × 10^−9 M): 48%
NBT positive ratio (Am80 3.3 × 10^−9 M + test compound 1.0 × 10^−6 M (HX600 series)): 93%
NBT positive ratio (Am80 3.3 × 10^−9 M + test compound 1.0 × 10^−7 M): 93%
NBT positive ratio (Am80 3.3 × 10^−9 M + test compound 1.0 × 10^−8 M): 73%
NBT positive ratio (Am80 3.3 × 10^−9 M + test compound 1.0 × 10^−9 M): 64%
NBT positive ratio (Am80 3.7 × 10^−10 M + test compound 1.0 × 10^−6 M (HX600 series)): 67%
NBT positive ratio (Am80 3.7 × 10^−10 M + test compound 1.0 × 10^−7 M): 72%
NBT positive ratio (Am80 3.7 × 10^−10 M + test compound 1.0 × 10^−8 M): 41%
NBT positive ratio (Am80 3.7 × 10^−10 M + test compound 1.0 × 10^−9 M): 21%
NBT positive ratio (Retinoic acid 1.0 × 10^−8 M + test compound 1.0 × 10^−6 M): 91%
NBT positive ratio (Retinoic acid 1.0 × 10^−8 M + test compound 1.1 × 10^−7 M): 91%
NBT positive ratio (Retinoic acid 1.0 × 10^−8 M + test compound 3.3 × 10^−7 M): 91%
NBT positive ratio (Retinoic acid 1.1 × 10^−9 M + test compound 1.0 × 10^−6 M): 69%
NBT positive ratio (Retinoic acid 1.1 × 10^−9 M + test compound 1.1 × 10^−7 M): 68%
NBT positive ratio (Retinoic acid 1.1 × 10^−9 M + test compound 3.3 × 10^−7 M): 76%
NBT positive ratio (Retinoic acid 3.3 × 10^−9 M + test compound 1.0 × 10^−6 M): 90%
NBT positive ratio (Retinoic acid 3.3 × 10^−9 M + test compound 1.1 × 10^−7 M): 86%
NBT positive ratio (Retinoic acid 3.3 × 10^−9 M + test compound 3.3 × 10^−7 M): 90%

CC1=C(/C=C/C(C)=C/C=C/C(C)=C/C(=O)O)C(C)(C)CCC1 [Retinoic acid, retinoic acid, reference compound]
NBT positive ratio (Retinoic acid 1.0 × 10^−8 M alone, test compound absent): 54%
NBT positive ratio (Retinoic acid 1.1 × 10^−9 M alone, test compound absent): 14%
NBT positive ratio (Retinoic acid 3.3 × 10^−9 M alone, test compound absent): 36%
